# Data taken from US20120214847A1, “2-[1-PHENYL-5-HYDROXY-4a-SUBSTITUTED-HEXAHYDROCYCLOPENTA[F]INDAZOL-5-YL]ETHYL PHENYL DERIVATIVES AS GLUCOCORTICOID RECEPTOR LIGANDS” (Merck Sharp & Dohme Corp., priority 2009, published 2012).
# Molecular target: T1, human GR (Homo sapiens, UniProt P04150)
# T1 construct: naturally expresses the human GR; endogenous in cells
# T1 sequence (P04150 1-777): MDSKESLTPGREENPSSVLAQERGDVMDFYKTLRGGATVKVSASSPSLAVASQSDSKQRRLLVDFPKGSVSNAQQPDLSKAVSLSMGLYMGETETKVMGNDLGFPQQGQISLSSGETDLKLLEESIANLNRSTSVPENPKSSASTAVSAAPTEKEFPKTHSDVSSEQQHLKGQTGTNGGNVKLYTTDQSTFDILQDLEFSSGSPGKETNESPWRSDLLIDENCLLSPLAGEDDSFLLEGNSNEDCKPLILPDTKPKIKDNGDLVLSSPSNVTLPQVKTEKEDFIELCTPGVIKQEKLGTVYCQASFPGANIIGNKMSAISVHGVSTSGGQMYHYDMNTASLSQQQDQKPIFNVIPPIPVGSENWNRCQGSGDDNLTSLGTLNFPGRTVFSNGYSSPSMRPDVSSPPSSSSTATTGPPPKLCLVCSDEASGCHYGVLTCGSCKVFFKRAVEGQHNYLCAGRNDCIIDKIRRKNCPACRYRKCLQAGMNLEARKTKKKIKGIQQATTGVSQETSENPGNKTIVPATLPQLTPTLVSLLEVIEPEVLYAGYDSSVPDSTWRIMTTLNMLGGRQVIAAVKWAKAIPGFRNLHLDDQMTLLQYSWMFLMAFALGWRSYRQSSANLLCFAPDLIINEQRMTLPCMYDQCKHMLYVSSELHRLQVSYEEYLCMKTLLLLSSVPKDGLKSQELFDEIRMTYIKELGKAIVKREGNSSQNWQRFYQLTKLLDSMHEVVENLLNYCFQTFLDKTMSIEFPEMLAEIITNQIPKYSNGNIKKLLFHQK
# Test: Transrepression assay (GITAR), TNFα-β-lactamase reporter in U937 cells
# Format: cell-based
# Settings: for EC50 / Transrepression U937 Cells GITAR Emax (%): U937 cells; for EC50: IP = inflection point; for Transrepression U937 Cells GITAR Emax (%) / Emax: activity repressed by 100 nM dexamethasone alone set as 100%; for Emax: U-937, U937 cells
# How it was run: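 U937 cells stably carrying TNFα promoter–β-lactamase, endogenous GR, preincubated with compound 30–45 min at 37° C., then stimulated with 5 ng/ml PMA plus 100 ng/ml LPS for ~18 h. CCF2-AM read-out; repression by 100 nM dexamethasone set as 100%.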
EC50 [nM],Transrepression U937 Cells GITAR Emax (%),Emax [%],Structure (SMILES)
85,72,,"NC(=O)C(O)c1ccccc1CC[C@]1(O)CCC2=Cc3c(cnn3-c3ccc(F)cc3)C[C@@]21C1CC1 (single isomer, unassigned) [Example 3a]"
282,54,,"OC(C[C@]1(O)CCC2=Cc3c(cnn3-c3ccc(F)cc3)C[C@@]21C1CC1)c1ccc(F)cn1 (single isomer, unassigned) [Example 79b]"
217,54,,"CC[C@]12Cc3cnn(-c4ccccc4)c3C=C1CC[C@@]2(O)CC(O)c1ccccn1 (single isomer, unassigned) [Example 82a]"
277,44,,"CC[C@]12Cc3cnn(-c4ccccc4)c3C=C1CC[C@@]2(O)CC(O)c1ccccn1 (single isomer, unassigned) [Example 82b]"
8,,79,"OCc1ccccc1CC[C@]1(O)CCC2=Cc3c(cnn3-c3ccc(F)cc3)C[C@@]21C1CC1 [Example 2, (4aR,5R)-4a-Cyclopropyl-1-(4-fluorophenyl)-5-{2-[2-(hydroxymethyl)phenyl]ethyl}-1,4,4a,5,6,7-hexahydrocyclopenta[f]indazol-5-ol]"
56,,70,"CC[C@]12Cc3cnn(-c4ccc(F)cc4)c3C=C1CC[C@@]2(O)CCc1ncccc1S(C)(=O)=O [Example 80, (4aS,5R)-4a-Ethyl-1-(4-fluorophenyl)-5-{2-[3-(methylsulfonyl)pyridin-2-yl]ethyl}-1,4,4a,5,6,7-hexahydrocyclopenta[f]indazol-5-ol]"
53,,68,"CC[C@]12Cc3cnn(-c4ccccc4)c3C=C1CC[C@@]2(O)CCc1ncccc1S(=O)(=O)C(C)C [Example 81, (4aS,5R)-4a-Ethyl-5-{2-[3-(iso-propylsulfonyl)pyridin-2-yl]ethyl}-1-phenyl-1,4,4a,5,6,7-hexahydrocyclopenta[f]indazol-5-ol]"
